For 20 compounds, Ki results are on record in patent US20230159532A1, “PARATHYROID HORMONE (PTH) RECEPTOR ANTAGONISTS AND USES THEREOF” (Crinetics Pharmaceuticals, Inc., priority 2021, published 2023).

The experiment deals with T1, human PTHR1 receptor (Homo sapiens, UniProt Q03431).
T1 construct: purchased Eurofins HTS030M
T1 sequence (Q03431 27-593): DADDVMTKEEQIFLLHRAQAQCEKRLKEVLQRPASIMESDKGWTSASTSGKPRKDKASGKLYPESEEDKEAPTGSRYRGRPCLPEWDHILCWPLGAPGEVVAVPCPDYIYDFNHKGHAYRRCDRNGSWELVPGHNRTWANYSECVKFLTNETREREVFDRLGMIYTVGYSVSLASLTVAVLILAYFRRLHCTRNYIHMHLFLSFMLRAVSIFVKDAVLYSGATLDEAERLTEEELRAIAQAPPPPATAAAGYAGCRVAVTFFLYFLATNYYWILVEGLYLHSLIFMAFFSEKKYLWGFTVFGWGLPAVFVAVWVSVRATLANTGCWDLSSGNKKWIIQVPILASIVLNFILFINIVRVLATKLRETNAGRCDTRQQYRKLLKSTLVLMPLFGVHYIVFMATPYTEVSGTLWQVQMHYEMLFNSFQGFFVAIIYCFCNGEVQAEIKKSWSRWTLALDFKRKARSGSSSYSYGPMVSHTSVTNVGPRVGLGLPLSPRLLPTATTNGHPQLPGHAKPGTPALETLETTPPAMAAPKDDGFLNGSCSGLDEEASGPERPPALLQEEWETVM
Nature of the experiment: Competitive antagonist binding assay for hPTH-R1 (radioactive competition binding, SPA beads). As to conditions: human PTHR1 membranes, [125I]-[Nle8,18,Tyr34]-PTH(1-34) 0.2 nM, 90 minutes at room temperature; read-out: hPTHR1 Ki. Put shortly:
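Displacement of 0.2 nM radioiodinated [Nle8,18,Tyr34]-PTH(1-34) from membrane-bound human PTHR1 measured by scintillation proximity after 90 min at room temperature. Compounds typically 0-10,000 nM final, pH 7.4 HEPES/Mg/Ca buffer with BSA and detergent. Ki calculated from competition data.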
One may read the Ki as a measure of affinity in units of concentration, obtained from inhibition or displacement. As for `CCN1C(=O)N(c2c(F)cc(NCCNCCCO)cc2F)c2cc(C#N)ccc2-c2cc(Cl)cnc21` [1-190, 4-chloro-10-[2,6-difluoro-4-({2-[(3-hydroxypropyl)amino]ethyl}amino)phenyl]-8-ethyl-9-oxo-6,8,10-triazatricyclo[9.4.0.0^2,7]pentadeca-1(11),2(7),3,5,12,14-hexaene-13-carbonitrile], the Ki was below 100 nM.

As to `CCN1C(=O)N(c2c(F)cc(NCCNCCN3CCOC3=O)cc2F)c2cc(C#N)ccc2-c2cc(Cl)cnc21` [1-191, 4-chloro-10-{2,6-difluoro-4-[(2-{[2-(2-oxo-1,3-oxazolidin-3-yl)ethyl]amino}ethyl)amino]phenyl}-8-ethyl-9-oxo-6,8,10-triazatricyclo[9.4.0.0^2,7]pentadeca-1(11),2(7),3,5,12,14-hexaene-13-carbonitrile], the Ki is below 100 nM.

As to `CCN1C(=O)N(c2c(F)cc(NCCN[C@H]3C[C@@H](O)C3)cc2F)c2cc(C#N)ccc2-c2cc(Cl)cnc21` [1-192, 4-chloro-10-{2,6-difluoro-4-[(2-{1[(1s,3s)-3-hydroxycyclobutyl]amino}ethyl)amino]phenyl}-8-ethyl-9-oxo-6,8,10-triazatricyclo[9.4.0.0^2,7]pentadeca-1(11),2(7),3,5,12,14-hexaene-13-carbonitrile], the inhibitory constant (Ki) is below 100 nM.

Take `CCN1C(=O)N(c2c(F)cc(NCCN[C@H]3CC[C@H](C(=O)O)CC3)cc2F)c2cc(C#N)ccc2-c2cc(Cl)cnc21` [1-193, (1r,4r)-4-({2-[(4-{4-chloro-13-cyano-8-ethyl-9-oxo-6,8,10-triazatricyclo[9.4.0.0^2,7]pentadeca-1(11),2(7),3,5,12,14-hexaen-10-yl}-3,5-difluorophenyl)amino]ethyl}amino)cyclohexane-1-carboxylic acid]: the inhibition constant Ki was below 100 nM.

Take `CCN1C(=O)N(c2c(F)cc(NCCNC[C@@H](O)CO)cc2F)c2cc(C#N)ccc2-c2cc(F)cnc21` [1-194, 10-{4-[(2-{[(2R)-2,3-dihydroxypropyl]amino}ethyl)amino]-2,6-difluorophenyl}-8-ethyl-4-fluoro-9-oxo-6,8,10-triazatricyclo[9.4.0.0^2,7]pentadeca-1(11),2(7),3,5,12,14-hexaene-13-carbonitrile]: the Ki was below 100 nM.

Turning to `CN1C(=O)N(c2c(F)cc(NCCNCCO)cc2F)c2cc(C#N)ccc2-c2cc(Cl)cnc21` [1-195, 4-chloro-10-[2,6-difluoro-4-({2-[(2-hydroxyethyl)amino]ethyl}amino)phenyl]-8-methyl-9-oxo-6,8,10-triazatricyclo[9.4.0.0^2,7]pentadeca-1(11),2(7),3,5,12,14-hexaene-13-carbonitrile], the Ki is below 100 nM.

On to `CCN1C(=O)N(c2c(F)cc(NCCN[C@@H]3CC[C@H]3O)cc2F)c2cc(C#N)ccc2-c2cc(C(F)(F)F)cnc21` [1-196, 10-{2,6-difluoro-4-[(2-{[(1R,2R)-2-hydroxycyclobutyl]amino}ethyl)amino]phenyl}-8-ethyl-9-oxo-4-(trifluoromethyl)-6,8,10-triazatricyclo[9.4.0.0^2,7]pentadeca-1(11),2(7),3,5,12,14-hexaene-13-carbonitrile], for which the inhibitory constant (Ki) is below 100 nM.

For the compound `CN1C(=O)N(c2c(F)cc(NCCNCCCO)cc2F)c2cc(C#N)ccc2-c2cc(Cl)cnc21` [1-197, 4-chloro-10-[2,6-difluoro-4-({2-[(3-hydroxypropyl)amino]ethyl}amino)phenyl]-8-methyl-9-oxo-6,8,10-triazatricyclo[9.4.0.0^2,7]pentadeca-1(11),2(7),3,5,12,14-hexaene-13-carbonitrile], the Ki is below 100 nM.

Consider `CN1C(=O)N(c2c(F)cc(NCCN[C@H]3C[C@H](O)C3)cc2F)c2cc(C#N)ccc2-c2cc(Cl)cnc21` [1-198, 4-chloro-10-{2,6-difluoro-4-[(2-{[(1r,3r)-3-hydroxycyclobutyl]amino}ethyl)amino]phenyl}-8-methyl-9-oxo-6,8,10-triazatricyclo[9.4.0.0^2,7]pentadeca-1(11),2(7),3,5,12,14-hexaene-13-carbonitrile], for which the Ki was below 100 nM.

Turning to `CCN1C(=O)N(c2c(F)cc(NCCNC[C@H](C)O)cc2F)c2cc(C#N)ccc2-c2cc(F)cnc21` [1-199, 10-{2,6-difluoro-4-[(2-{[(2S)-2-hydroxypropyl]amino}ethyl)amino]phenyl}-8-ethyl-4-fluoro-9-oxo-6,8,10-triazatricyclo[9.4.0.0^2,7]pentadeca-1(11),2(7),3,5,12,14-hexaene-13-carbonitrile], the Ki is below 100 nM.

Take `CCN1C(=O)N(c2c(F)cc(NCCNC[C@H](O)CO)cc2F)c2cc(C#N)ccc2-c2cc(F)cnc21` [1-200, 10-{4-[(2-{[(2S)-2,3-dihydroxypropyl]amino}ethyl)amino]-2,6-difluorophenyl}-8-ethyl-4-fluoro-9-oxo-6,8,10-triazatricyclo[9.4.0.0^2,7]pentadeca-1(11),2(7),3,5,12,14-hexaene-13-carbonitrile]: the Ki is below 100 nM.

For `CN1C(=O)N(c2c(F)cc(NCCNCCCC(=O)O)cc2F)c2cc(C#N)ccc2-c2cc(Cl)cnc21` [1-201, 4-({2-[(4-{4-chloro-13-cyano-8-methyl-9-oxo-6,8,10-triazatricyclo[9.4.0.0^2,7]pentadeca-1(11),2(7),3,5,12,14-hexaen-10-yl}-3,5-difluorophenyl)amino]ethyl}amino)butanoic acid], the inhibitory constant (Ki) was below 100 nM.

For `CCN1C(=O)N(c2c(F)cc(NCCN[C@@H](CO)CC(=O)O)cc2F)c2cc(C#N)ccc2-c2cc(Cl)cnc21` [1-202, (3R)-3-({2-[(4-{4-chloro-13-cyano-8-ethyl-9-oxo-6,8,10-triazatricyclo[9.4.0.0^2,7]pentadeca-1(11),2(7),3,5,12,14-hexaen-10-yl}-3,5-difluorophenyl)amino]ethyl}amino)-4-hydroxybutanoic acid], the Ki was below 100 nM.

Regarding `CCN1C(=O)N(c2c(F)cc(NCCNC[C@@H](C)O)cc2F)c2cc(C#N)ccc2-c2cc(F)cnc21` [1-203, 10-{2,6-difluoro-4-[(2-{[(2R)-2-hydroxypropyl]amino}ethyl)amino]phenyl}-8-ethyl-4-fluoro-9-oxo-6,8,10-triazatricyclo[9.4.0.0^2,7]pentadeca-1(11),2(7),3,5,12,14-hexaene-13-carbonitrile], the inhibitory constant (Ki) is below 100 nM.

With `CCN1C(=O)N(c2c(F)cc(NCCN[C@@H]3CC[C@@H]3O)cc2F)c2cc(C#N)ccc2-c2cc(F)cnc21` [1-204, 10-{2,6-difluoro-4-[(2-{[(1R,2S)-2-hydroxycyclobutyl]amino}ethyl)amino]phenyl}-8-ethyl-4-fluoro-9-oxo-6,8,10-triazatricyclo[9.4.0.0^2,7]pentadeca-1(11),2(7),3,5,12,14-hexaene-13-carbonitrile], the Ki is below 100 nM.

As to `C[C@@H](CO)NCCNc1cc(F)c(N2C(=O)N(C)c3ncc(Cl)cc3-c3ccc(C#N)cc32)c(F)c1` [1-205, 4-chloro-10-{2,6-difluoro-4-[(2-{[(2S)-1-hydroxypropan-2-yl]amino}ethyl)amino]phenyl}-8-methyl-9-oxo-6,8,10-triazatricyclo[9.4.0.0^2,7]pentadeca-1(11),2(7),3,5,12,14-hexaene-13-carbonitrile], the Ki was below 100 nM.

With `CCN1C(=O)N(c2c(F)cc(NCCN[C@H]3C[C@H](C(=O)O)C3)cc2F)c2cc(C#N)ccc2-c2cc(Cl)cnc21` [1-206, (1r,3r)-3-({2-[(4-{4-chloro-13-cyano-8-ethyl-9-oxo-6,8,10-triazatricyclo[9.4.0.0^2,7]pentadeca-1(11),2(7),3,5,12,14-hexaen-10-yl}-3,5-difluorophenyl)amino]ethyl}amino)cyclobutane-1-carboxylic acid], the Ki was below 100 nM.

Consider `CCN1C(=O)N(c2c(F)cc(NCCN[C@H]3C[C@@H](O)C3)cc2F)c2cc(C#N)ccc2-c2cc(C(F)(F)F)cnc21` [1-207, 10-{2,6-difluoro-4-[(2-{[(1s,3s)-3-hydroxycyclobutyl]amino}ethyl)amino]phenyl}-8-ethyl-9-oxo-4-(trifluoromethyl)-6,8,10-triazatricyclo[9.4.0.0^2,7]pentadeca-1(11),2(7),3,5,12,14-hexaene-13-carbonitrile], for which the Ki is below 100 nM.

As for `CCN1C(=O)N(c2c(F)cc(NCCNCCO)cc2F)c2cc(C#N)ccc2-c2cc(C)cnc21` [1-208, 10-[2,6-difluoro-4-({2-[(2-hydroxyethyl)amino]ethyl}amino)phenyl]-8-ethyl-4-methyl-9-oxo-6,8,10-triazatricyclo[9.4.0.0^2,7]pentadeca-1(11),2(7),3,5,12,14-hexaene-13-carbonitrile], the inhibition constant Ki was below 100 nM.

For `CCN1C(=O)N(c2c(F)cc(NCCNCCC(C)(C)C(=O)O)cc2F)c2cc(C#N)ccc2-c2cc(Cl)cnc21` [1-209, 4-({2-[(4-{4-chloro-13-cyano-8-ethyl-9-oxo-6,8,10-triazatricyclo[9.4.0.0^2,7]pentadeca-1(11),2(7),3,5,12,14-hexaen-10-yl}-3,5-difluorophenyl)amino]ethyl}amino)-2,2-dimethylbutanoic acid], the inhibition constant (Ki) was below 100 nM.
